According to patent US20230212208A1, “Colour Tunable Luminescent Bidentate Platinum (II) Complexes for Probing Mismatch DNA” (THE UNIVERSITY OF HONG KONG, priority 2019, published 2023):
Like-named read-outs stand apart in the source and are kept apart here.

Experiments:
[1] = test system: CA hairpin mismatched DNA (SEQ ID NO: 5); conditions: 20 μM in Tris buffer, λex=410 nm, CA hairpin mismatch
Source text: (§1) The emission increased around 3-fold for CA (SEQ ID NO: 5) and TC hairpin mismatched DNA (SEQ ID NO: 6), and 2-fold for AA hairpin mismatched DNA (SEQ ID NO: 7) (FIG. 5A).

[2] = test system: AA hairpin mismatched DNA (SEQ ID NO: 7); conditions: 20 μM in Tris buffer, λex=410 nm, AA hairpin mismatch
Source text: as §1

[3] = test system: TC hairpin mismatched DNA (SEQ ID NO: 6); conditions: 20 μM in Tris buffer, λex=410 nm, TC hairpin mismatch
Source text: as §1

[4] = test system: cognate matched DNA (CG match, SEQ ID NO: 3); conditions: 20 μM in Tris buffer pH 7.1, 1-fold matched DNA
Protocol: The emission spectra for detection of CC mismatched DNA and matched DNA were determined (FIGS. 2A and 2B).

[5] = test system: hairpin CC mismatched DNA with different adjacent base pairs; conditions: Pt(II) complex to DNA ratio 1.0
Source text: Especially, the 5′- . . . […] GCA . . . -3′ (SEQ ID NO: 24), 5′- . . . GCC . . . -3′ (SEQ ID NO: 25), GCG . . . -3′ (SEQ ID NO: 26) and 5′- . . .

With “Pt(II)(benzo[h]quinolone-1-benzyl-3-butylimidazolium bromide [PtCN2]” the “emission increase at high-energy fingerprint spectrum” value (“emission increase” below) [1] was “around 3 fold”, the “emission increase” value [2] was about 2 fold and the “emission increase” value [3] was “around 3 fold”. The “emission enhancement at high-energy emission” value [4] was “no significant emission enhancement”, the “emission intensity at 497 nm over matched DNA” value ([5]; CC mismatch 5'-ACC-3' (SEQ ID NO: 17) vs matched DNA) was 5 fold and the “emission intensity at 497 nm over matched DNA” value ([5]; CC mismatch 5'-GCA-3' (SEQ ID NO: 24) vs matched DNA) was 5 fold. The “emission intensity at 497 nm over matched DNA” value ([5]; CC mismatch 5'-GCC-3' (SEQ ID NO: 25) vs matched DNA) was 5 fold, the “emission intensity at 497 nm over matched DNA” value ([5]; CC mismatch 5'-GCG-3' (SEQ ID NO: 26) vs matched DNA) was 5 fold and the “emission response at 497 nm, higher than matched DNA” value ([5]; CC mismatch 5'-GCT-3' (SEQ ID NO: 27) vs matched DNA (SEQ ID NO: 32)) was 6 fold.
